Laboratory results as given in US7115640B2, “Heterocyclic modulators of nuclear receptors” (X-Ceptor Therapeutics, Inc., priority 2001, dated 2006).
Like-named read-outs stand apart in the source and are kept apart here.

How the values were obtained:
[1] = biological target: T1, FXR (CMX-hFXR with CMX-RXRα in CV-1 cells) (Homo sapiens, UniProt Q96RI1); assay: FXR/ECREx7 co-transfection assay (luciferase reporter); type: cell-based; conditions: for EC50: FXR agonism
T1 construct: expressed in transfected cells; host or cells: CV-1 African Green Monkey Kidney cells
T1 sequence (Q96RI1 1-472 isoform Q96RI1-2): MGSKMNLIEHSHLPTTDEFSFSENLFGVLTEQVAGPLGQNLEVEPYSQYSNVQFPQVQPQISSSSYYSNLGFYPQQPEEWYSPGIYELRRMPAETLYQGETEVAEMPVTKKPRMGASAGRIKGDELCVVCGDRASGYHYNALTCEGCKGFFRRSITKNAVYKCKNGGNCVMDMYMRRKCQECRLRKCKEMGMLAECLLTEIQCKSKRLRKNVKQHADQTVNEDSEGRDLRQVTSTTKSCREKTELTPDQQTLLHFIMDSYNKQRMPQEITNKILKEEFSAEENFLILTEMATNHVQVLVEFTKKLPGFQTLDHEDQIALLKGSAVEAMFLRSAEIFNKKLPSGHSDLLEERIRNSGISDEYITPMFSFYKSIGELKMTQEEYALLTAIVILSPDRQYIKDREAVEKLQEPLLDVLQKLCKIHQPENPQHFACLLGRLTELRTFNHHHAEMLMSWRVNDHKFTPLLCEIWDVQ
T1 sequence (P19793 1-462 partner): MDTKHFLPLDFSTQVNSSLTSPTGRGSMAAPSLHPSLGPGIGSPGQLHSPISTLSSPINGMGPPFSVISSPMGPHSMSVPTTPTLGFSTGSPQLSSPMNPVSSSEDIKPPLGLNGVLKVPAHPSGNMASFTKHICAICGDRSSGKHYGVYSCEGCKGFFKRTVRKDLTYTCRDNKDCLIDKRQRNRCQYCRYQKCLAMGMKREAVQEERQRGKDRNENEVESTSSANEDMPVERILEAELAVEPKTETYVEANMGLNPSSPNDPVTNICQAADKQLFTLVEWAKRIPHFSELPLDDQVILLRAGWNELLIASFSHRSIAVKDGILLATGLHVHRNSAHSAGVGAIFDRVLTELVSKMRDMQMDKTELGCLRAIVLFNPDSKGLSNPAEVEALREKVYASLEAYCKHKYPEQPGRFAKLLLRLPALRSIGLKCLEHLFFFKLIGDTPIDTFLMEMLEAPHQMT
Method: The basic co-transfection protocol for measuring FXR activity is as follows. CV-1 African Green Monkey Kidney cells are plated 24 hours before transfection to achieve approximately 70–80 percent confluency. Cells are transfected with CMX-hFXR, CMX-RXRα, Luc12 reporter (ECREx7-Tk-Luciferase), and a CMX-β-Galactosidase expression vector. The transfection reagent used is DOTAP. Cells are incubated with the DOTAP/DNA mixture for 5 hours after which the cells are harvested and plated onto either 96 well or 384 well plates containing the appropriate concentration of test compound. The assay is allowed to continue for an additional 18–20 hours, after which the cells are lysed, and the luciferase activity is measured on a standard plate reader.
(§1) Both the FXR/ECREx7 co-transfection assay (Example 54) and the TR-FRET assay (Example 53) can be used to establish the EC50/IC50 values for potency and percent activity or inhibition for efficacy. Efficacy defines the activity of a compound relative to a high control (chenodeoxycholic acid, CDCA) or a low control (DMSO/vehicle). The dose response curves are generated from an 8 point curve with concentrations differing by ½ LOG units. Each point represents the average of 4 wells of data from a 384 well plate. The curve for the data is generated by using the equation: Y=Bottom+(Top−Bottom)/(1+10^((LogEC50−X)*HillSlope))
(§2) The EC50/IC50 is therefore defined as the concentration at which an agonist or antagonist elicits a response that is half way between the Top (maximum) and Bottom (baseline) values. The EC50/IC50 values represented are the averages of at least 3 independent experiments. The determination of the relative efficacy or % control for an agonist is by comparison to the maximum response achieved by chenodeoxycholic acid that is measured individually in each dose response experiment.
For the antagonist assay, 40 μM CDCA is added to each well of a 384 well plate to elicit a response. The % inhibition for each antagonist is therefore a measurement of the inhibition of the activity of 40 μM CDCA. In this example 100% inhibition would indicate that the activity of 40 μM CDCA has been reduced to baseline levels, defined as the activity of the assay in the presence of DMSO only.

GST-FXR-LBD = biological target: T2, GST-FXR-LBD (Homo sapiens, UniProt Q96RI1); assay: Time resolved fluorescence resonance energy transfer (TR-FRET) coactivator recruitment assay; type: biochemical
T2 sequence (Q96RI1 244-472 isoform Q96RI1-2): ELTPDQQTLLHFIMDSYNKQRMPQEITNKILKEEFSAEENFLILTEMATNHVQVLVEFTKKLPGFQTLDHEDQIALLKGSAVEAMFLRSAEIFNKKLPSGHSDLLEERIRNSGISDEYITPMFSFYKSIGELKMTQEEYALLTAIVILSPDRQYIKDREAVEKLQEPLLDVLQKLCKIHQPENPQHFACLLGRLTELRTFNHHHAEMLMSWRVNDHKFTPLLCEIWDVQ
Method: The FRET assay was performed by incubating 8 nM of GST-FXR-LBD, 8 nM of Europium-labeled anti-GST antibody (Wallac), 16 nM biotin-SRC-1 peptide [5′-biotin-[…]-CONH2], 20 nM APC-SA [allophycocyanin conjugated streptavidin] (Wallac) in FRET assay buffer (20 mM KH2PO4/K2HPO4 (pH 7.3), 150 mM NaCl, 2 mM CHAPS, 2 mM EDTA, 1 mM DTT) in the presence of the test compound(s) for 2–4 hours at room temperature. Data was collected using an LJL Analyst with readings at 615 nm and 665 nm.
as §1, with “The curve for the data is generated by using the equation: Y=Bottom+(Top−Bottom)/(1+10^((LogEC50−X)*HillSlope))” left out
as §2, with “The EC50/IC50 values represented are the averages of at least 3 independent experiments.” left out, “experiment. […]” for “experiment.”

Structure (SMILES)	Emax ([1]; CV-1, relative to maximum response of chenodeoxycholic acid (CDCA), co-transfection assay, read-out: % efficacy) [%]	EC50 ([1]; co-transfection assay) [nM]	Emax ([1]; CV-1, read-out: % efficacy) [%]	IC50 (GST-FXR-LBD; FXR antagonism) [nM]	% inhibition (GST-FXR-LBD; inhibition of the activity of 40 μM CDCA)
CCNc1ccc(C#N)cc1N=C1SC(=C2Sc3ccccc3N2C)C(=O)N1Cc1ccccc1 [Example 32, 3-[3-benzyl-5-(3-methyl-3H-benzothiazol-2-ylidene)-4-oxothiazolidin-2-ylideneamino]-4-(ethylamino)benzonitrile]	~150	~10	–	–	–
CCNc1ccc(C#N)cc1N=C1SC(=C2SC(C)=C(c3ccccc3)N2C)C(=O)N1Cc1ccccc1 [Example 52, 3-(3′-benzyl-3,5-dimethyl-4′-oxo-4-phenyl-3′,4′-dihydro-3H-[2,5′]-bithiazolyliden-2′-ylideneamino)-4-(ethylamino)benzonitrile]	–	~56	~32	~42	about 48%
